Source: patent US20040167061A1, “Substantially homogeneous bio-affecting material having a pre-determined ratio of bioaffecting component to cell targeting component, the method for making such a material and the method of its use” (priority 2003, published 2004)

Tests used:
NADH-oxidase = conditions: plasma membrane redox enzyme; cited from earlier work
human mesothelioma cells = conditions: nude mice with (drug-resistant) human mesothelioma cells; compared to animals treated only with doxorubicin; cited from earlier work
[1] = tested on: leukemic cells in peripheral blood; conditions: cited from earlier work
advanced ovarian cancer = experiment: unpublished randomized clinical study in advanced ovarian cancer; type: in vivo, human; conditions: equivalent to 1 mg doxorubicin per day on days 15 through 19 of monthly cycles; time between diagnosis and randomization 18 months
Description: There is an unpublished clinical study of 23 patients with advanced ovarian cancer who were randomized into test (12 patients) and placebo (11 patients) groups. The test group received transferrin-doxorubicin conjugates equivalent to 1 mg doxorubicin per day on days 15 through 19 of monthly treatment cycles.

[2] = tested on: metastatic lesions from a sarcoma; conditions: treatment begun August 2000
[3] = tested on: multi-drug resistant cells; conditions: cited from earlier work

Row | Compound | inhibition of NADH-oxidase (NADH-oxidase) | survival (prolonging life) (human mesothelioma cells) | decrease of number of leukemic cells in peripheral blood ([1]; 7 patients, 1 mg/day iv for 5 days, within 10-days following therapy) | extension of disease ([1]; bone marrow biopsies before and after treatment) | toxic effects ([1]; seven acute leukemia patients, 1 mg/day intravenously for 5 days) | Cox regression estimates of survival rates, test versus placebo (advanced ovarian cancer) | radiological evidence of tumor ([2]; by January) | metastatic lesions in the lungs ([2]; by November) | killing of multi-drug resistant cells [3]
1 | COc1cccc2c1C(=O)c1c(O)c3c(c(O)c1C2=O)C[C@@](O)(C(=O)CO)C[C@@H]3O[C@H]1C[C@H](N)[C@H](O)[C@H](C)O1 [doxorubicin] | efficient inhibitor |  |  |  |  |  |  |  | 
2 | glutaraldehyde-prepared transferrin-doxorubicin conjugates |  | significantly prolonging life | 86% | no extension of disease | no toxic effects |  |  |  | 
3 | transferrin-doxorubicin conjugates | inhibit |  |  |  |  | significant difference | no radiological evidence of tumor | substantially cleared of metastatic lesions | effectively kill
